Laboratory results from ChEMBL document CHEMBL4823289, “Conformational-Analysis-Guided Discovery of 2,3-Disubstituted Pyridine IDO1 Inhibitors” (ACS Med Chem Lett, 2021).

What was measured:
[1] = Volume of steady state distribution in mouse at 1 mg/kg, iv; type: ADME, organism-based; conditions: in vivo, read-out: Vdss
[2] = target: Voltage-gated inwardly rectifying potassium channel KCNH2 (Homo sapiens, UniProt Q12809); assay: Inhibition of hERG (unknown origin)
[3] = Oral bioavailability in dog at 5 mg/kg; type: ADME, organism-based, Canis lupus familiaris; conditions: in vivo
[4] = AUC in dog at 5 mg/kg, po; type: ADME, organism-based, Canis lupus familiaris; set-up: dose 5 mg/kg; conditions: in vivo
Cytochrome P450 (CYP) [5] = assay: Metabolic stability assessed as mouse CYP-mediated metabolism by measuring half life; type: ADME
[6] = Drug metabolism in human hepatocytes assessed as demethylated metabolite formation; type: ADME, cell-based, Hepatocyte
[7] = target: T1, Indoleamine 2,3-dioxygenase 1 (Homo sapiens, UniProt P14902); assay: Inhibition of IDO1 in IFNgamma-stimulated human HeLa cells preincubated for 2 hrs followed by recombinant human IFNgamma stimulation and measured after 18 hrs by fluorescence based microplate reader assay
T1 sequence (P14902 whole entry): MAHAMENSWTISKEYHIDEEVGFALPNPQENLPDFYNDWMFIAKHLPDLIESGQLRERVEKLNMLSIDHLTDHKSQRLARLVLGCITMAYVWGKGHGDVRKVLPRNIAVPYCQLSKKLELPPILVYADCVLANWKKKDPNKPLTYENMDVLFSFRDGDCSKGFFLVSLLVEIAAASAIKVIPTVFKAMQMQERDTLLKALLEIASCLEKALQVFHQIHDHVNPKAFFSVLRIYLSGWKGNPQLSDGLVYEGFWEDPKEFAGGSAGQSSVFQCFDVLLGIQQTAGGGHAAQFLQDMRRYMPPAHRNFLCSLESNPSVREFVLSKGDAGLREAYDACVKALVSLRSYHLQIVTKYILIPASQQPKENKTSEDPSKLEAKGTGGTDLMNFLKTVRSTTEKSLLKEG

[8] = Metabolic stability in rat liver microsomes assessed as parent compound remaining at 0.5 uM after 10 mins incubation by LC-MS/MS analysis relative to control; type: ADME, Microsome; conditions: read-out: Activity
[9] = tested on: UDP-glucuronosyltransferases (UGT); assay: Metabolic stability assessed as dog UGT-mediated metabolism by measuring half life; type: ADME, Canis lupus familiaris
[10] = AUC in cynomolgus monkey at 5 mg/kg, po; type: ADME, organism-based, Macaca fascicularis; set-up: dose 5 mg/kg; conditions: in vivo
[11] = Half life in cynomolgus monkey at 1 mg/kg, iv; type: ADME, organism-based, Macaca fascicularis; conditions: in vivo
Cytochrome P450 (CYP) [12] = target: Cytochrome P450 (CYP) (Homo sapiens, UniProt P04798+P05177+P05181+P08684+P10632+P10635+P11509+P11712+P13584+P20813+P20815+P20853+P24462+P24903+P33260+P33261+P51589+P78329+P98187+Q02928+Q08477+Q16678+Q16696+Q5TCH4+Q6VVX0+Q7Z449+Q8TAV3+Q96SQ9+Q9HB55); assay: Metabolic stability assessed as human CYP-mediated metabolism by measuring half life; type: ADME, protein assay
[13] = AUC in dog at 1 mg/kg, iv; type: ADME, organism-based, Canis lupus familiaris; set-up: dose 1 mg/kg; conditions: in vivo
[14] = AUC in mouse at 1 mg/kg, iv; type: ADME, organism-based; set-up: dose 1 mg/kg; conditions: in vivo
Cytochrome P450 (CYP) [15] = assay: Metabolic stability assessed as rat CYP-mediated metabolism by measuring half life; type: ADME
[16] = AUC (0 to 24 hrs) in human SK-OV-3 cells xenografted in nu/nu mouse xenograft model measured in tumor at 20 mg/kg, po QD; type: ADME, organism-based; set-up: time < 24 hr, route oral, dose 20 mg/kg
[17] = Apparent permeability across apical to basolateral side in human Caco-2 cells; type: ADME, cell-based
[18] = Clearance in mouse at 1 mg/kg, iv; type: ADME, organism-based; conditions: in vivo
hERG (KCNH2) = hERG (KCNH2) (Homo sapiens, UniProt Q12809); assay: Inhibition of hERG (unknown origin) at 30 uM relative to control
hERG (KCNH2), sequence (Q12809 whole entry): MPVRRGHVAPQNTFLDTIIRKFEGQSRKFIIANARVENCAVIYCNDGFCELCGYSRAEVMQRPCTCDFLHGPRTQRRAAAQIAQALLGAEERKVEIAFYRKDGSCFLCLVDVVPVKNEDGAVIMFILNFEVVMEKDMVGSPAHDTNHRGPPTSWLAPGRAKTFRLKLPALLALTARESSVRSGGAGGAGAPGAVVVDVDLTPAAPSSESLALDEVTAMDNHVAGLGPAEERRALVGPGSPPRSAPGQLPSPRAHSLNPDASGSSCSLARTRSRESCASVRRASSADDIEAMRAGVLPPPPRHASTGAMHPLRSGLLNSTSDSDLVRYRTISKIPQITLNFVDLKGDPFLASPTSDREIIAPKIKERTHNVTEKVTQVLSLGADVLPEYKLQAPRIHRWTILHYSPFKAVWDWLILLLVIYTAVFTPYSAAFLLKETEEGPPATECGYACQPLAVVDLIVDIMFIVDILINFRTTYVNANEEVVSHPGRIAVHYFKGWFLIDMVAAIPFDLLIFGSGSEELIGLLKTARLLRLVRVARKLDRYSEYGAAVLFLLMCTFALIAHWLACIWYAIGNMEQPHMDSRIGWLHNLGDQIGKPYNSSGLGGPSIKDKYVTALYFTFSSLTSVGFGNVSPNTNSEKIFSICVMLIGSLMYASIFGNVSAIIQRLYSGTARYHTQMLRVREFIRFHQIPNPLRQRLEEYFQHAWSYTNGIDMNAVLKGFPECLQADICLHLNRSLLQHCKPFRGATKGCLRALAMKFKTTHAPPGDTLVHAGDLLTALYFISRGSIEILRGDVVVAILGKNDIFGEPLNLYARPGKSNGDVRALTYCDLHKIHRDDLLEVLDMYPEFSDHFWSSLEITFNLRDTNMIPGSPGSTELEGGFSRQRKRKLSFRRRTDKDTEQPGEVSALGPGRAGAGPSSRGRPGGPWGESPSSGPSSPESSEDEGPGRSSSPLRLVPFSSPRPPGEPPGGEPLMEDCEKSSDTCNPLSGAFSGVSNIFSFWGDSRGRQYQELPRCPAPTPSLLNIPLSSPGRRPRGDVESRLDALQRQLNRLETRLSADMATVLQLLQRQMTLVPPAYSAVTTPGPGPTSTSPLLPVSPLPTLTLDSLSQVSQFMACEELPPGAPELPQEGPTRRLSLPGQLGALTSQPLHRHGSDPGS

[19] = Drug metabolism in dog hepatocytes assessed as demethylated metabolite formation; type: ADME, cell-based, Canis lupus familiaris, Hepatocyte
[20] = AUC in mouse at 10 mg/kg, po; type: ADME, organism-based; set-up: dose 10 mg/kg; conditions: in vivo
Cytochrome P450 (CYP) [21] = assay: Metabolic stability assessed as dog CYP-mediated metabolism by measuring half life; type: ADME, Canis lupus familiaris
[22] = Drug metabolism in rat hepatocytes assessed as demethylated metabolite formation; type: ADME, cell-based, Hepatocyte
[23] = AUC in rat at 10 mg/kg, po; type: ADME, organism-based; set-up: dose 10 mg/kg; conditions: in vivo
Cytochrome P450 (CYP) [24] = assay: Metabolic stability assessed as cynomolgus monkey CYP-mediated metabolism by measuring half life; type: ADME, Macaca fascicularis
[25] = Half life in rat at 0.5 mg/kg, iv; type: ADME, organism-based; conditions: in vivo
Cytochrome P450 2C19 = Cytochrome P450 2C19 (Homo sapiens, UniProt P33261); assay: Inhibition of human CYP2C19
Cytochrome P450 2C19, sequence (P33261 whole entry): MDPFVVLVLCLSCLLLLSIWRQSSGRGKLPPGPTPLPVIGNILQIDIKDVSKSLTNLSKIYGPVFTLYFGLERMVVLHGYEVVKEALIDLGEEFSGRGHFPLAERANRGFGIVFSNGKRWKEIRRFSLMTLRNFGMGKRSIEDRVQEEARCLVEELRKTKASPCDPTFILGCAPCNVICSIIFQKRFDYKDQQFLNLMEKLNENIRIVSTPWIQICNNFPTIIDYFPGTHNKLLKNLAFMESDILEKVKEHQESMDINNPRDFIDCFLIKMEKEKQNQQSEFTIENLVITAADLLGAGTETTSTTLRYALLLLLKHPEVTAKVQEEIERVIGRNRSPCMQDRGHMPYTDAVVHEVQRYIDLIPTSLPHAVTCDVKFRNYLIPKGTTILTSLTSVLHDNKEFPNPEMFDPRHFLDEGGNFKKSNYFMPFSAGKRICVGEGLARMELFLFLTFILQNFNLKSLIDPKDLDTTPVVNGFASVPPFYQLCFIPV

[26] = Oral bioavailability in mouse at 10 mg/kg; type: ADME, organism-based; conditions: in vivo
[27] = AUC (0 to 24 hrs) in human SK-OV-3 cells xenografted in nu/nu mouse xenograft model measured in tumor at 120 mg/kg, po QD; type: ADME, organism-based; set-up: time < 24 hr, route oral, dose 120 mg/kg
[28] = Volume of steady state distribution in rat at 0.5 mg/kg, iv; type: ADME, organism-based; conditions: in vivo, read-out: Vdss
[29] = AUC (0 to 24 hrs) in human SK-OV-3 cells xenografted in nu/nu mouse xenograft model measured in tumor at 60 mg/kg, po QD; type: ADME, organism-based; set-up: time < 24 hr, route oral, dose 60 mg/kg
[30] = Volume of steady state distribution in cynomolgus monkey at 1 mg/kg, iv; type: ADME, organism-based, Macaca fascicularis; conditions: in vivo, read-out: Vdss
[31] = Clearance in dog at 1 mg/kg, iv; type: ADME, organism-based, Canis lupus familiaris; conditions: in vivo
[32] = AUC (0 to 24 hrs) in nu/nu mouse xenograft model xenografted with human SK-OV-3 cells measured in tumor at 180 mg/kg, po QD; type: ADME, organism-based; set-up: time < 24 hr, route oral, dose 180 mg/kg
[33] = Metabolic stability in mouse liver microsomes assessed as parent compound remaining at 0.5 uM after 10 mins incubation by LC-MS/MS analysis relative to control; type: ADME, Microsome; conditions: read-out: Activity
Cytochrome P450 2C9 = Cytochrome P450 2C9 (Homo sapiens, UniProt P11712); assay: Inhibition of human CYP2C9
Cytochrome P450 2C9, sequence (P11712 whole entry): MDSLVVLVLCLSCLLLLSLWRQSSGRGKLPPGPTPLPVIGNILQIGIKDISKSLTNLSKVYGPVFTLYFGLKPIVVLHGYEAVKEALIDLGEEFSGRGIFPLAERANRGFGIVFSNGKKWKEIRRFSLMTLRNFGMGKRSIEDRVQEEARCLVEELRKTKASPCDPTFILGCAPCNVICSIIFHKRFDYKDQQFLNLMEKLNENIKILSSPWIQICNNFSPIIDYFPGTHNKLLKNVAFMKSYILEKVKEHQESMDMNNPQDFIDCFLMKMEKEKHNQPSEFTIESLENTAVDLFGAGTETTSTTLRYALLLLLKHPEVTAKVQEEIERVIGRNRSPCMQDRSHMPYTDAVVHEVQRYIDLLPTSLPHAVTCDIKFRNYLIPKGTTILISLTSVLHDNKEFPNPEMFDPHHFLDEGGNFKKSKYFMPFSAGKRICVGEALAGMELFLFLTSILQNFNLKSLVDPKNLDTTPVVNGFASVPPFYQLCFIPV

[34] = Half life in dog at 1 mg/kg, iv; type: ADME, organism-based, Canis lupus familiaris; conditions: in vivo
[35] = Clearance in rat at 0.5 mg/kg, iv; type: ADME, organism-based; conditions: in vivo
[36] = AUC in cynomolgus monkey at 1 mg/kg, iv; type: ADME, organism-based, Macaca fascicularis; set-up: dose 1 mg/kg; conditions: in vivo
[37] = Half life in mouse at 1 mg/kg, iv; type: ADME, organism-based; conditions: in vivo
[38] = Apparent permeability across basolateral to apical side in human Caco-2 cells; type: ADME, cell-based
[39] = tested on: UDP-glucuronosyltransferases (UGT); assay: Metabolic stability assessed as rat UGT-mediated metabolism by measuring half life; type: ADME
[40] = Oral bioavailability in cynomolgus monkey at 5 mg/kg; type: ADME, organism-based, Macaca fascicularis; conditions: in vivo
[41] = Drug metabolism in cynomolgus monkey hepatocytes assessed as demethylated metabolite formation; type: ADME, cell-based, Macaca fascicularis, Hepatocyte
[42] = tested on: UDP-glucuronosyltransferases (UGT); assay: Metabolic stability assessed as cynomolgus monkey UGT-mediated metabolism by measuring half life; type: ADME, Macaca fascicularis
[43] = tested on: UDP-glucuronosyltransferases (UGT); assay: Metabolic stability assessed as mouse UGT-mediated metabolism by measuring half life; type: ADME
[44] = AUC in rat at 0.5 mg/kg, iv; type: ADME, organism-based; set-up: dose 0.5 mg/kg; conditions: in vivo
[45] = target: T1, Indoleamine 2,3-dioxygenase 1; assay: Inhibition of IDO1 in IFNgamma/LPS-stimulated human whole blood preincubated for 4 hrs followed by IFNgamma/LPS stimulation and incubated for 18 hrs by Rapid-fire mass spectrometry analysis; type: tissue-based
[46] = Volume of steady state distribution in dog at 1 mg/kg, iv; type: ADME, organism-based, Canis lupus familiaris; conditions: in vivo, read-out: Vdss
[47] = Apparent permeability of the compound at pH 7.4 by PAMPA; type: ADME
[48] = Oral bioavailability in rat at 10 mg/kg; type: ADME, organism-based; conditions: in vivo
[49] = Clearance in cynomolgus monkey at 1 mg/kg, iv; type: ADME, organism-based, Macaca fascicularis; conditions: in vivo
[50] = target: Indoleamine 2,3-dioxygenase 1 (Mus musculus, UniProt P28776); assay: Inhibition of IDO1 in IFNgamma-stimulated mouse M109 cells preincubated for 2 hrs followed by recombinant murine IFNgamma stimulation and measured after 18 hrs by fluorescence based microplate reader assay; type: cell-based
Indoleamine 2,3-dioxygenase 1 (Mus musculus, UniProt P28776), sequence (P28776 whole entry): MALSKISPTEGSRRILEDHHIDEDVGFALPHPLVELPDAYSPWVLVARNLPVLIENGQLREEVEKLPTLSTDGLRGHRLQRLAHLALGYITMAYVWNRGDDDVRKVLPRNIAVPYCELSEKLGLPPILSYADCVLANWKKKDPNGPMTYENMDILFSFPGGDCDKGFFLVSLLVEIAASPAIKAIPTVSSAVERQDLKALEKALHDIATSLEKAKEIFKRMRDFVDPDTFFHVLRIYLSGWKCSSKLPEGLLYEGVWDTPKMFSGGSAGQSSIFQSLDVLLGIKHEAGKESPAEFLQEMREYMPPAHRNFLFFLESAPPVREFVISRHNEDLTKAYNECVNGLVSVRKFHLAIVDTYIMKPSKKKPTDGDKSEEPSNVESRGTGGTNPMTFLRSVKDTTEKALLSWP

[51] = target: UDP-glucuronosyltransferases (UGT) (Homo sapiens, UniProt O60656+O75310+O75795+P06133+P0DTE4+P0DTE5+P16662+P19224+P22309+P22310+P35503+P35504+P36537+P54855+Q6UWM9+Q9BY64+Q9HAW7+Q9HAW8+Q9HAW9); assay: Metabolic stability assessed as human UGT-mediated metabolism by measuring half life; type: ADME, protein assay
[52] = Metabolic stability in human liver microsomes assessed as parent compound remaining at 0.5 uM after 10 mins incubation by LC-MS/MS analysis relative to control; type: ADME, Microsome; conditions: read-out: Activity
Cytochrome P450 2C8 = target: T2, Cytochrome P450 2C8 (Homo sapiens, UniProt P10632); assay: Inhibition of human CYP2C8
T2 sequence (P10632 whole entry): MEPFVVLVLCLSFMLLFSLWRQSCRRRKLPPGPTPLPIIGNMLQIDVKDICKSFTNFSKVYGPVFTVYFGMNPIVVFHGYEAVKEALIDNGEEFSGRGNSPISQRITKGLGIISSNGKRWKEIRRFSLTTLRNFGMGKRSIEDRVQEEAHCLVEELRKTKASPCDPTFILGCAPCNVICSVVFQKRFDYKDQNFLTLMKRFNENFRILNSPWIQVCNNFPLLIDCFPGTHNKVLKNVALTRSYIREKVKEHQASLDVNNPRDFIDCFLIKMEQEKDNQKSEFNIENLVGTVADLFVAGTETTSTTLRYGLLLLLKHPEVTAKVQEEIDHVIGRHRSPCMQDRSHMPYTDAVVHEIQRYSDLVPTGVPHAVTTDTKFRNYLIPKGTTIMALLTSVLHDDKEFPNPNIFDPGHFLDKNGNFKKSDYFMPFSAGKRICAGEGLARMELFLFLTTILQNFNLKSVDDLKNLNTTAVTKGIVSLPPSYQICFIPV

Voltage-gated inwardly rectifying potassium channel KCNH2, sequence (Q12809 whole entry): as the sequence (Q12809 whole entry) above

- Vd [1]: 6.2 L/kg
- bioavailability [3]: 28%
- AUC [4]: 3.2 µM·h
- half-life (Cytochrome P450 (CYP) [5]): 0.183 h
- Drug metabolism [6]: Metabolite_Detected
- IC50 [7]: 2 nM
- remaining at 10 min, 0.5 µM [8]: 90%
- half-life [9]: > 2 h
- AUC [10]: 0.029 µM·h
- half-life [11]: 11 h
- half-life (Cytochrome P450 (CYP) [12]): 0.533 h
- AUC [13]: 2.3 µM·h
- AUC [14]: 1.2 µM·h
- half-life (Cytochrome P450 (CYP) [15]): 0.333 h
- AUC at 24 h [16]: 7.9 µM·h
- Papp A→B [17]: 12.2 ×10⁻⁶ cm/s
- clearance [18]: 33 mL/min/kg
- Drug metabolism [19]: Metabolite_Detected
- AUC [20]: 3.9 µM·h
- half-life (Cytochrome P450 (CYP) [21]): 7 min
- Drug metabolism [22]: Metabolite_Detected
- AUC [23]: 8.7 µM·h
- half-life (Cytochrome P450 (CYP) [24]): 3 min
- half-life [25]: 7.1 h
- IC50 (Cytochrome P450 2C19): 9500 nM
- bioavailability [26]: 33%
- AUC at 24 h [27]: 13 µM·h
- Vd [28]: 4 L/kg
- AUC at 24 h [29]: 9.2 µM·h
- Vd [30]: 4.5 L/kg
- clearance [31]: 18 mL/min/kg
- AUC at 24 h [32]: 13 µM·h
- remaining at 10 min, 0.5 µM [33]: 60%
- IC50 (Cytochrome P450 2C9): 1890 nM
- half-life [34]: 14 h
- clearance [35]: 15 mL/min/kg
- AUC [36]: 1.3 µM·h
- half-life [37]: 5 h
- Papp B→A [38]: 5.6 ×10⁻⁶ cm/s
- half-life [39]: > 2 h
- F [40]: 4.5%
- Drug metabolism [41]: Metabolite_Detected
- half-life [42]: > 2 h
- half-life [43]: > 2 h
- AUC [44]: 1.3 µM·h
- IC50 [45]: 2.3 nM
- Vd [46]: 9 L/kg
- Papp [47]: 107 ×10⁻⁶ cm/s
- bioavailability [48]: 34%
- clearance [49]: 29 mL/min/kg
- IC50 [50]: 14 nM
- half-life [51]: > 2 h
- remaining at 10 min, 0.5 µM [52]: 87%
- IC50 (Cytochrome P450 2C8): 4010 nM
SMILES: CC[C@@H](NC(=O)c1ccc(OC)nc1)[C@H]1CC[C@@H](c2ccnc(OC)c2C(F)F)CC1
- IC50 [2]: 17400 nM
- inhibition at 30 µM (hERG (KCNH2)): 61%
